Results taken from publication PMC6421848 (European journal of medicinal chemistry, 2018).

Legend:
[1] = tested on: HeLaS3 cells; experiment: SRB antiproliferation assay, HeLaS3; conditions: read-out: IC50 HeLaS3, 72 h, mean ± SD of three experiments
[2] = tested on: HeLaS3 cells; experiment: ROS generation, HeLaS3; assay type: cell-based, human; conditions: HeLaS3, 24 h treatment
[3] = tested on: KB-vin cells; experiment: ROS generation, KB-vin; assay type: cell-based, human; conditions: 24 h treatment
[4] = tested on: HeLaS3 cells; experiment: Mitochondrial membrane potential assay, HeLaS3; assay type: cell-based, human; conditions: HeLaS3, 24 h treatment
[5] = tested on: KB-vin cells; experiment: Mitochondrial membrane potential assay, KB-vin; assay type: cell-based, human; conditions: 24 h treatment
[6] = molecular target: T1, NQO1 (Homo sapiens, UniProt P15559); experiment: NQO1 activity assay kit in treated HeLaS3 cells; conditions: HeLaS3, 24 h, serial concentrations
T1 sequence (P15559 whole entry): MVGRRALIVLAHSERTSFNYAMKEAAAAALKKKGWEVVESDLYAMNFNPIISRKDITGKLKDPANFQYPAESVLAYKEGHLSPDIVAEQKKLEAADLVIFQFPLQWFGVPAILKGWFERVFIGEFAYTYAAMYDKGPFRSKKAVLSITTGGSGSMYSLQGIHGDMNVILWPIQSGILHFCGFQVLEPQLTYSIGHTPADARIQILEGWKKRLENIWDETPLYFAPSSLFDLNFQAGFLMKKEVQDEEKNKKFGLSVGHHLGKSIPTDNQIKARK

[7] = molecular target: T1, NQO1; experiment: NQO1 activity assay kit in treated KB-vin cells; conditions: 24 h, serial concentrations
[8] = molecular target: T1, NQO1; experiment: NQO1 inhibitory kinetic assay; assay type: biochemical
[9] = tested on: normal endometrial epithelial cells (EECs); experiment: MTT proliferation assay, normal endometrial epithelial cells; assay type: cell-based; conditions: increasing doses, 72 h
[10] = tested on: HeLaS3 cells; experiment: MTT proliferation assay, HeLaS3; assay type: cell-based, human; conditions: increasing doses, 72 h
[11] = tested on: HeLaS3 cells; experiment: Western blot of apoptotic proteins; assay type: cell-based, human; conditions: HeLaS3, 72 h
[12] = tested on: HeLaS3 cells; experiment: NQO1-dependent cytotoxicity; conditions: HeLaS3, SRB, 72 h
[13] = tested on: KB-vin cells; experiment: NQO1-dependent cytotoxicity; conditions: SRB, 72 h

Molecule	IC50 [1] [µM]	ROS production [2]	ROS production [3]	mitochondrial membrane potential [4]	mitochondrial membrane potential [5]	NQO1 activity after treatment [6]	NQO1 activity after treatment [7]	also measured
6-((4-([1,4’ -Bipiperidin]-1’ -yl)phenyl)amino)quinoline-5,8-dione [Compound 6f]	5.16							
7-((4-([1,4’ -Bipiperidin]-1’ -yl)phenyl)amino)quinoline-5,8-dione [Compound 7f]	5.07 ± 0.1							
CN1CCN(c2ccc(NC3=CC(=O)c4ncccc4C3=O)cc2)CC1 [Compound 6d, 6-((4-(4-Methylpiperazin-1-yl)phenyl)amino)quinoline-5,8-dione]		increased dose-dependently	increased dose-dependently	significantly decreased in a dose-dependent manner	significantly decreased in a dose-dependent manner			
COC(=O)/C=C/c1cccc(CNC2=CC(=O)c3ncccc3C2=O)c1 [Compound 6h, (E)-Methyl 3-(3-(((5,8-dioxo-5,8-dihydroquinolin-6-yl)amino)methyl)phenyl)acrylate]		increased dose-dependently	increased dose-dependently	significantly decreased in a dose-dependent manner	significantly decreased in a dose-dependent manner	inhibited dose-dependently	inhibited dose-dependently	
O=C1C=C(NCCc2c[nH]c3ccccc23)C(=O)c2ncccc21 [Compound 7a, 7-((2-(1H-Indol-3-yl)ethyl)amino)quinoline-5,8-dione]		increased dose-dependently	increased dose-dependently	significantly decreased in a dose-dependent manner	significantly decreased in a dose-dependent manner	inhibited dose-dependently	inhibited dose-dependently	
CN1CCN(c2ccc(NC3=CC(=O)c4cccnc4C3=O)cc2)CC1 [Compound 7d, 7-((4-(4-Methylpiperazin-1-yl)phenyl)amino)quinoline-5,8-dione]		increased dose-dependently	increased dose-dependently	significantly decreased in a dose-dependent manner	significantly decreased in a dose-dependent manner	inhibited dose-dependently	inhibited dose-dependently	mode of NQO1 inhibition ([8]; Lineweaver-Burk plots): competitive inhibitors; maximum rate (Vmax) ([8]; remained the same as inhibitor concentration increased): 11.03 ± 1.5 nmol/mg protein/20s; effect on survival of non-tumor EECs [9]: no significant effect; effect on HeLaS3 cells, same treatment regimen [10]: induced major HeLaS3 cell death; cleavage of caspase-3 [11]: induced more cleavage of caspase-3 than the control group; levels of anti-apoptotic Bcl-2 expression ([11]; dose-dependent): reduced; relative levels of pro-apoptotic Bax expression ([11]; dose-dependent): dramatically increased; cell viability of compound-treated cells on addition of DIC and NAc [12]: significantly increased; cell viability of compound-treated cells on addition of DIC and NAc [13]: significantly increased
